Experimental data taken from PubChem BioAssay (NCI).
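Values below derive from 48-hour exposures of cells grown in 96-well plates, with endpoints linearly interpolated between the two concentrations bracketing the appropriate inhibition level. GI50 is the concentration that inhibits growth by half. At the TGI there is no net growth.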

What was measured:
Assay in all cases: inhibition of tumour cell growth, NCI panel, 48 h
786-0 renal = tested on: 786-0 renal
HCT-15 colon = tested on: HCT-15 colon
HS 578T breast = tested on: HS 578T breast
K-562 leukemia = tested on: K-562 leukemia
LOX IMVI melanoma = tested on: LOX IMVI melanoma
MOLT-4 leukemia = tested on: MOLT-4 leukemia
NCI/ADR-RES ovarian = tested on: NCI/ADR-RES ovarian
RXF 393 renal = tested on: RXF 393 renal
SK-MEL-2 melanoma = tested on: SK-MEL-2 melanoma
UACC-257 melanoma = tested on: UACC-257 melanoma

`CC1(C)N=C(N)N=C(N)N1c1cccc(CCCCOc2ccccc2)c1` was tested. Which GI50 (786-0 renal) did it give?
The GI50 was 0.142 µM.

And the TGI (786-0 renal)?
Its TGI is > 100 µM.

What about the GI50 (HCT-15 colon) of the same compound?
The GI50 was 3.01 µM.

What about the TGI (HCT-15 colon) of the same compound?
Its TGI is > 100 µM.

And the GI50 (HS 578T breast)?
The GI50 was 10.2 µM.

What about the TGI (HS 578T breast) of the same compound?
Its TGI is 37.3 µM.

And the GI50 (K-562 leukemia)?
Its GI50 is 0.05 µM.

And the TGI (K-562 leukemia)?
The TGI was > 100 µM.

And the GI50 (LOX IMVI melanoma)?
Its GI50 is 0.0395 µM.

And the TGI (LOX IMVI melanoma)?
Its TGI is 14.7 µM.

And the GI50 (MOLT-4 leukemia)?
The GI50 was 0.0629 µM.

And the TGI (MOLT-4 leukemia)?
The TGI was 36.3 µM.

What about the GI50 (NCI/ADR-RES ovarian) of the same compound?
Its GI50 is > 100 µM.

And the TGI (NCI/ADR-RES ovarian)?
Its TGI is > 100 µM.

And the GI50 (RXF 393 renal)?
Its GI50 is 0.147 µM.

And the TGI (RXF 393 renal)?
Its TGI is > 100 µM.

What about the GI50 (SK-MEL-2 melanoma) of the same compound?
Its GI50 is 1.61 µM.

What about the TGI (SK-MEL-2 melanoma) of the same compound?
The TGI was 19.9 µM.

What about the GI50 (UACC-257 melanoma) of the same compound?
The GI50 was 0.381 µM.

And the TGI (UACC-257 melanoma)?
The TGI was 23.5 µM.

Which results are given for `COc1ccc2cc(Cn3cc[n+](Cc4ccc5ccccc5c4)c3)ccc2c1`?
GI50 (786-0 renal): 4.72 µM; TGI (786-0 renal): 19.6 µM; GI50 (HCT-15 colon): 15.8 µM; TGI (HCT-15 colon): 32.4 µM; GI50 (HS 578T breast): 2.32 µM; TGI (HS 578T breast): 9.92 µM; GI50 (K-562 leukemia): 3.51 µM; TGI (K-562 leukemia): 16.3 µM; GI50 (LOX IMVI melanoma): 1.5 µM; TGI (LOX IMVI melanoma): 2.86 µM; GI50 (MOLT-4 leukemia): 2.31 µM; TGI (MOLT-4 leukemia): 7.62 µM; GI50 (NCI/ADR-RES ovarian): > 100 µM; TGI (NCI/ADR-RES ovarian): > 100 µM; GI50 (RXF 393 renal): 1.75 µM; TGI (RXF 393 renal): 4.59 µM; GI50 (SK-MEL-2 melanoma): 1.91 µM; TGI (SK-MEL-2 melanoma): 4.65 µM; GI50 (UACC-257 melanoma): 1.95 µM; TGI (UACC-257 melanoma): 5.09 µM

With `C=CC[C@@H]1/C=C(\C)C[C@H](C)C[C@H](OC)[C@H]2O[C@@](O)(C(=O)C(=O)N3CCCC[C@H]3C(=O)O[C@H](/C(C)=C/C3CC[C@@H](O)[C@H](OC)C3)[C@H](C)[C@@H](O)CC1=O)[C@H](C)C[C@@H]2OC` (stereo not given in full) as the compound, how does the GI50 (786-0 renal) read?
The GI50 was 17.3 µM.

And the TGI (786-0 renal)?
The TGI was 35.1 µM.

And the GI50 (HCT-15 colon)?
The GI50 was 17.2 µM.

What about the TGI (HCT-15 colon) of the same compound?
Its TGI is 38.1 µM.

What about the GI50 (HS 578T breast) of the same compound?
The GI50 was 21.9 µM.

And the TGI (HS 578T breast)?
The TGI was 65.9 µM.

What about the GI50 (K-562 leukemia) of the same compound?
Its GI50 is 18.7 µM.

What about the TGI (K-562 leukemia) of the same compound?
The TGI was 52 µM.

And the GI50 (LOX IMVI melanoma)?
The GI50 was 15 µM.

And the TGI (LOX IMVI melanoma)?
The TGI was 29.7 µM.

And the GI50 (MOLT-4 leukemia)?
The GI50 was 14.4 µM.

What about the TGI (MOLT-4 leukemia) of the same compound?
Its TGI is 41.6 µM.

What about the GI50 (NCI/ADR-RES ovarian) of the same compound?
The GI50 was 15 µM.

And the TGI (NCI/ADR-RES ovarian)?
The TGI was 35.3 µM.

What about the GI50 (RXF 393 renal) of the same compound?
The GI50 was 13.6 µM.

And the TGI (RXF 393 renal)?
Its TGI is 27.3 µM.

What about the GI50 (SK-MEL-2 melanoma) of the same compound?
Its GI50 is 17.4 µM.

And the TGI (SK-MEL-2 melanoma)?
The TGI was 33.4 µM.

What about the GI50 (UACC-257 melanoma) of the same compound?
Its GI50 is 15.8 µM.

What about the TGI (UACC-257 melanoma) of the same compound?
Its TGI is 30.6 µM.

Which GI50 (786-0 renal) does the source give for `COc1ccc(-c2nn(-c3cccc(NC(=O)c4cccc(C(F)(F)F)c4)c3)cc2-c2ccncc2)cc1Cl` here?
The GI50 was 2.91 µM.

And the TGI (786-0 renal)?
Its TGI is 27.5 µM.

What about the GI50 (HCT-15 colon) of the same compound?
The GI50 was 2 µM.

What about the TGI (HCT-15 colon) of the same compound?
Its TGI is > 100 µM.

And the GI50 (HS 578T breast)?
Its GI50 is 1.54 µM.

And the TGI (HS 578T breast)?
The TGI was 8.74 µM.

And the GI50 (K-562 leukemia)?
Its GI50 is 0.837 µM.

And the TGI (K-562 leukemia)?
Its TGI is > 100 µM.

What about the GI50 (LOX IMVI melanoma) of the same compound?
The GI50 was 3.08 µM.

What about the TGI (LOX IMVI melanoma) of the same compound?
The TGI was 27.2 µM.

And the GI50 (MOLT-4 leukemia)?
The GI50 was 2.62 µM.

What about the TGI (MOLT-4 leukemia) of the same compound?
Its TGI is > 100 µM.

And the GI50 (NCI/ADR-RES ovarian)?
Its GI50 is 1.75 µM.

And the TGI (NCI/ADR-RES ovarian)?
Its TGI is 14 µM.

What about the GI50 (RXF 393 renal) of the same compound?
The GI50 was 1.46 µM.

And the TGI (RXF 393 renal)?
The TGI was 7.78 µM.

And the GI50 (SK-MEL-2 melanoma)?
Its GI50 is 3 µM.

What about the TGI (SK-MEL-2 melanoma) of the same compound?
The TGI was 13.2 µM.

And the GI50 (UACC-257 melanoma)?
Its GI50 is 6.67 µM.

And the TGI (UACC-257 melanoma)?
The TGI was 61.7 µM.

How did the GI50 (786-0 renal) turn out when `CC1OC(n2c3ccccc3c3c4c(c5c6ccccc6[nH]c5c32)C(=O)N(CCN2CCOCC2)C4=O)CC(O)C1O` (stereo not given) was run?
Its GI50 is 1.49 µM.

And the TGI (786-0 renal)?
The TGI was 6.53 µM.

And the GI50 (HCT-15 colon)?
Its GI50 is 2.34 µM.

What about the TGI (HCT-15 colon) of the same compound?
Its TGI is 13.5 µM.

What about the GI50 (HS 578T breast) of the same compound?
The GI50 was 6.32 µM.

And the TGI (HS 578T breast)?
The TGI was 16.2 µM.

And the GI50 (K-562 leukemia)?
Its GI50 is 1.85 µM.

And the TGI (K-562 leukemia)?
Its TGI is 50 µM.

What about the GI50 (LOX IMVI melanoma) of the same compound?
Its GI50 is 0.962 µM.

What about the TGI (LOX IMVI melanoma) of the same compound?
The TGI was 6.12 µM.

And the GI50 (MOLT-4 leukemia)?
The GI50 was 1.2 µM.

And the TGI (MOLT-4 leukemia)?
The TGI was 9.93 µM.

And the GI50 (NCI/ADR-RES ovarian)?
Its GI50 is 2.87 µM.

And the TGI (NCI/ADR-RES ovarian)?
The TGI was 13.1 µM.

What about the GI50 (RXF 393 renal) of the same compound?
Its GI50 is 2.82 µM.

What about the TGI (RXF 393 renal) of the same compound?
Its TGI is 10.6 µM.

What about the GI50 (SK-MEL-2 melanoma) of the same compound?
The GI50 was 10.6 µM.

What about the TGI (SK-MEL-2 melanoma) of the same compound?
Its TGI is 22 µM.

What about the GI50 (UACC-257 melanoma) of the same compound?
Its GI50 is 6.11 µM.

What about the TGI (UACC-257 melanoma) of the same compound?
Its TGI is 14.5 µM.

Which GI50 (786-0 renal) does the source give for `CSC1=Nc2c(c(C)c(C)n2COC(CO)CO)C2=NC(=O)CC(C)N12` (stereo not given) here?
Its GI50 is > 100 µM.

What about the TGI (786-0 renal) of the same compound?
The TGI was > 100 µM.

What about the GI50 (HCT-15 colon) of the same compound?
Its GI50 is > 100 µM.

What about the TGI (HCT-15 colon) of the same compound?
The TGI was > 100 µM.

And the GI50 (HS 578T breast)?
Its GI50 is > 100 µM.

And the TGI (HS 578T breast)?
Its TGI is > 100 µM.

And the GI50 (K-562 leukemia)?
The GI50 was > 100 µM.

And the TGI (K-562 leukemia)?
The TGI was > 100 µM.

And the GI50 (LOX IMVI melanoma)?
The GI50 was > 100 µM.

What about the TGI (LOX IMVI melanoma) of the same compound?
The TGI was > 100 µM.

What about the GI50 (MOLT-4 leukemia) of the same compound?
The GI50 was > 100 µM.

And the TGI (MOLT-4 leukemia)?
Its TGI is > 100 µM.

And the GI50 (NCI/ADR-RES ovarian)?
Its GI50 is > 100 µM.

What about the TGI (NCI/ADR-RES ovarian) of the same compound?
The TGI was > 100 µM.

What about the GI50 (RXF 393 renal) of the same compound?
Its GI50 is > 100 µM.

What about the TGI (RXF 393 renal) of the same compound?
The TGI was > 100 µM.

What about the GI50 (SK-MEL-2 melanoma) of the same compound?
Its GI50 is > 100 µM.

And the TGI (SK-MEL-2 melanoma)?
Its TGI is > 100 µM.

And the GI50 (UACC-257 melanoma)?
The GI50 was > 100 µM.

And the TGI (UACC-257 melanoma)?
The TGI was > 100 µM.

Which results are given for `CC(C(=O)O)/C(=C\c1ccc2c(c1)OCO2)C(=O)O` (stereo not given)?
TGI (786-0 renal): > 100 µM; TGI (HCT-15 colon): > 100 µM; TGI (HS 578T breast): > 100 µM; TGI (K-562 leukemia): > 100 µM; TGI (LOX IMVI melanoma): > 100 µM; TGI (MOLT-4 leukemia): > 21.9 µM; TGI (NCI/ADR-RES ovarian): > 100 µM; TGI (RXF 393 renal): > 100 µM; TGI (SK-MEL-2 melanoma): > 100 µM; TGI (UACC-257 melanoma): > 100 µM

What does the source list for `COc1ccc(OC)c(/C=C2\COc3ccc(O)c(O)c3C2=O)c1`?
GI50 (786-0 renal): 2.28 µM; TGI (786-0 renal): 7.12 µM; GI50 (HCT-15 colon): 1.3 µM; TGI (HCT-15 colon): 6.5 µM; GI50 (HS 578T breast): 5.3 µM; TGI (HS 578T breast): 36.8 µM; GI50 (K-562 leukemia): 2.17 µM; TGI (K-562 leukemia): > 100 µM; GI50 (LOX IMVI melanoma): 1.48 µM; TGI (LOX IMVI melanoma): 3.02 µM; GI50 (MOLT-4 leukemia): 1.97 µM; TGI (MOLT-4 leukemia): > 100 µM; GI50 (NCI/ADR-RES ovarian): 2.51 µM; TGI (NCI/ADR-RES ovarian): 10.9 µM; GI50 (RXF 393 renal): 1.83 µM; TGI (RXF 393 renal): 3.58 µM; GI50 (SK-MEL-2 melanoma): 2.84 µM; TGI (SK-MEL-2 melanoma): 8.44 µM; GI50 (UACC-257 melanoma): 2.43 µM; TGI (UACC-257 melanoma): 7.82 µM
